In ChEMBL document CHEMBL1201862, “PubChem BioAssay data set” (2004):
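1) Cells in 96-well plates. 2) Compound, 48 h, 5 concentrations. 3) Linear interpolation between surrounding doses. 4) Unreached endpoint = highest concentration. The concentration for 50% growth inhibition is given as GI50.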 Activity calls are given as the source filed them. Cut-off read from the data, not from the text of the source: active = GI50 up to about 1.1 µM and inactive = higher.

Columns and labels:
Assay in all cases: NCI-60 cell line screen, 48 h
HOP-92 = tested on: HOP-92
SR = tested on: SR
NCI-H226 = tested on: NCI-H226
TK-10 = tested on: TK-10
MOLT-4 = tested on: MOLT-4
HL-60 = tested on: HL-60
OVCAR-8 = tested on: OVCAR-8
SK-MEL-2 = tested on: SK-MEL-2
OVCAR-4 = tested on: OVCAR-4
RXF 393 = tested on: RXF 393
OVCAR-5 = tested on: OVCAR-5
CAKI-1 = tested on: CAKI-1
DMS-273 = tested on: DMS-273
A498 = tested on: A498
UACC-257 = tested on: UACC-257
SK-OV-3 = tested on: SK-OV-3
HCT-15 = tested on: HCT-15
HT-29 = tested on: HT-29
UACC-62 = tested on: UACC-62
RPMI-8226 = tested on: RPMI-8226
CCRF-CEM = tested on: CCRF-CEM
786-0 = tested on: 786-0
KM12 = tested on: KM12
NCI-H522 = tested on: NCI-H522
K562 = tested on: K562
ACHN = tested on: ACHN
HCC 2998 = tested on: HCC 2998
UO-31 = tested on: UO-31
XF498 = tested on: XF498
SK-MEL-28 = tested on: SK-MEL-28
SN12C = tested on: SN12C
DMS-114 = tested on: DMS-114
LXFL 529 = tested on: LXFL 529
SF-539 = tested on: SF-539
HOP-18 = tested on: HOP-18
A549 = tested on: A549
KM-20L2 = tested on: KM-20L2
NCI-H460 = tested on: NCI-H460
NCI-H23 = tested on: NCI-H23
SNB-75 = tested on: SNB-75
SNB-19 = tested on: SNB-19
Malme-3M = tested on: Malme-3M
HOP-62 = tested on: HOP-62
SF-268 = tested on: SF-268
SW-620 = tested on: SW-620
DLD-1 = tested on: DLD-1
M14 = tested on: M14
EKVX = tested on: EKVX
SF-295 = tested on: SF-295
RXF 631 = tested on: RXF 631
SNB-78 = tested on: SNB-78
HCT-116 = tested on: HCT-116
IGROV-1 = tested on: IGROV-1
U-251 = tested on: U-251
SK-MEL-5 = tested on: SK-MEL-5

In the case of `Cc1ns/c(=N\C(=S)N(C)C)n1C`, the GI50 (HOP-92) is reported as > 100 µM (inactive), the GI50 (SR) is reported as > 100 µM (inactive) and the GI50 (NCI-H226) is reported as > 100 µM (inactive). For the same compound, the GI50 (TK-10) was > 100 µM (inactive), the GI50 (MOLT-4) was > 100 µM (inactive) and the GI50 (HL-60) was > 100 µM (inactive). For the same compound, the GI50 (OVCAR-8) was > 100 µM (inactive), the GI50 (SK-MEL-2) was > 100 µM (inactive) and the GI50 (OVCAR-4) was > 100 µM (inactive). For the same compound, the GI50 (RXF 393) was > 100 µM (inactive), the GI50 (OVCAR-5) was > 100 µM (inactive) and the GI50 (CAKI-1) was > 100 µM (inactive). For the same compound, the GI50 (DMS-273) was > 100 µM (inactive), the GI50 (A498) was > 100 µM (inactive) and the GI50 (UACC-257) was > 100 µM (inactive). The GI50 (SK-OV-3) was > 100 µM (inactive), the GI50 (HCT-15) was > 100 µM and the GI50 (HT-29) was > 100 µM (inactive). The GI50 (UACC-62) was > 100 µM (inactive), the GI50 (RPMI-8226) was > 100 µM (inactive) and the GI50 (CCRF-CEM) was > 100 µM (inactive). For the same compound, the GI50 (786-0) was > 100 µM (inactive), the GI50 (KM12) was > 100 µM (inactive) and the GI50 (NCI-H522) was > 100 µM (inactive). For the same compound, the GI50 (K562) was > 100 µM (inactive), the GI50 (ACHN) was > 100 µM (inactive) and the GI50 (HCC 2998) was > 100 µM (inactive). The GI50 (UO-31) was > 100 µM (inactive), the GI50 (XF498) was > 100 µM (inactive) and the GI50 (SK-MEL-28) was > 100 µM (inactive). The GI50 (SN12C) was > 100 µM (inactive), the GI50 (DMS-114) was > 100 µM (inactive) and the GI50 (LXFL 529) was > 100 µM (inactive). For the same compound, the GI50 (SF-539) was > 100 µM (inactive), the GI50 (HOP-18) was > 100 µM (inactive) and the GI50 (A549) was > 100 µM (inactive). The GI50 (KM-20L2) was > 100 µM (inactive), the GI50 (NCI-H460) was > 100 µM (inactive) and the GI50 (NCI-H23) was > 100 µM (inactive). For the same compound, the GI50 (SNB-75) was > 100 µM (inactive), the GI50 (SNB-19) was > 100 µM (inactive) and the GI50 (Malme-3M) was > 100 µM (inactive). The GI50 (HOP-62) was > 100 µM (inactive), the GI50 (SF-268) was > 100 µM (inactive) and the GI50 (SW-620) was > 100 µM (inactive). For the same compound, the GI50 (DLD-1) was > 100 µM (inactive), the GI50 (M14) was > 100 µM (inactive) and the GI50 (EKVX) was > 100 µM (inactive). The GI50 (SF-295) was > 100 µM (inactive), the GI50 (RXF 631) was > 100 µM (inactive) and the GI50 (SNB-78) was > 100 µM (inactive). For the same compound, the GI50 (HCT-116) was > 100 µM (inactive), the GI50 (IGROV-1) was > 100 µM (inactive) and the GI50 (U-251) was > 100 µM (inactive). The GI50 (SK-MEL-5) was > 100 µM (inactive).
